# Experiment: Stability testing: contents of chlorhexidine gluconate (liquid chromatography) and isopropyl alcohol (gas chromatography) in the wet wipe, long-term experiment
# Assay type: physicochemical
# Procedure: The test was performed by chromatography. The content of chlorhexidine gluconate in the 2% chlorhexidine gluconate-isopropyl alcohol solution and the wet wipe was quantitatively detected by liquid chromatography. The content of isopropyl alcohol in the wet wipe was quantitatively detected by gas chromatography. In this test, the contents of chlorhexidine gluconate and isopropyl alcohol were used as evaluation indexes. The contents of chlorhexidine gluconate and isopropyl alcohol were measured by a long-term experiment. Relative standard deviation (RSD) was used to determine the stability of the contents of chlorhexidine gluconate and isopropyl alcohol in the chlorhexidine gluconate-isopropyl alcohol wet wipe. The contents were respectively measured at Month 0, Month 1, Month 3, Month 6, Month 9, Month 12, Month 18 and Month 24. Based on the content at Month 0 (100%), the ratio of the content at the subsequent time points to the content at Month 0 was calculated respectively, as shown in Table 1.
Compound,ratio of the content to the content at Month 0 (Month 0 (set as 100%)) [%],ratio of the content to the content at Month 0 (Month 3) [%],ratio of the content to the content at Month 0 (Month 6) [%],ratio of the content to the content at Month 0 (Month 9) [%],ratio of the content to the content at Month 0 (Month 12) [%],ratio of the content to the content at Month 0 (Month 18) [%],ratio of the content to the content at Month 0 (Month 24)
N=C(NCCCCCCNC(=N)NC(=N)Nc1ccc(Cl)cc1)NC(=N)Nc1ccc(Cl)cc1.O=C(O)[C@H](O)[C@@H](O)[C@H](O)[C@H](O)CO.O=C(O)[C@H](O)[C@@H](O)[C@H](O)[C@H](O)CO [Chlorhexidine gluconate],100,100,100,100,100,100,106.2%^
CC(C)O [Isopropyl alcohol],100,97.5,100.8,100,99.2,100.8,102.5%
